Test results as given in patent US6455535B1, “Substituted aminoquinazolinone (thione) derivatives or salts thereof, intermediates thereof, and pest controllers and a method for using the same” (Nihon Nohyaku Co., Ltd., priority 1999, dated 2002).

Columns and labels:
[1] = test system: greenhouse whitefly (Trialeurodes vaporariorum); test: Insecticidal test on greenhouse whitefly, tomato leaf spray (Test Example 3); format: in vivo; conditions: 100 ppm test liquid sprayed on tomato leaf, 20 adults inoculated; for mortality at 100 ppm: Trialeurodes vaporariorum, read-out: insecticidal effect rating (mortality of adults)
Procedure: Insecticidal Test on Greenhouse Whitefly (Trialeurodes vaporariorum)
Each compounds of the present invention listed in Table 3 and Table 4 was dispersed in and diluted with water to prepare a test liquid containing 100 ppm of the test compound. By use of a spraygun, the test liquid was sprayed on the surface of a leaf of tomato plant put in a 20 ml-vial bottle containing water on a turn table. After air-dried, the leaf treated with the test liquid was put in a glass cylinder, and inoculated with 20 adults of greenhouse whitefly thereon. After the inoculation, the leaf was placed in a greenhouse, and the number of adults of greenhouse whitefly was counted. The mortality of the adults was calculated similar to that of conducted in Test Example 2, and the insecticidal effect of each one of the test compounds was evaluated by the method identical to Test Example 1.

[2] = test system: brown rice planthopper (Nilaparvata lugens); test: whole plant or invertebrate; format: in vivo; conditions: 192 h, rice seedlings immersed 30 seconds, 10 third-instar nymphs, eight days after inoculation, read-out: insecticidal effect rating (corrected larval mortality)
Excerpt: Insecticidal Effect on Brown Rice Planthopper (Nilaparvata lugens)
Each substituted aminoquinazolinone (thione) derivative of the general formula (I) or salt thereof of the present invention listed in Tables 3 and 4 was dispersed in and diluted with water to obtain a 500 ppm liquid chemical. Rice seedlings (cultivar: Nihonbare) were immersed in the liquid chemical for 30 seconds and air-dried, after which each seedling was placed in a glass test tube and inoculated with 10 third-instar nymphs of brown rice planthopper, and the test tube was pluged with a cotton plug. Eight days after the inoculation, the dead and alive were counted. The mortality was calculated by the following equation and the control effect was judged according to the criterion described below.
Corrected larval mortality (%)={(Ca/c−Ta/T)/Ca/c}×100
Ta: number of alive nymphs in treated groups
T: number of inoculated nymphs in treated groups
Ca: number of alive numphs in untreated groups
c: number of inoculated nymphs in untreated groups
Criterion: the same as in Test Example 1.

| SMILES | insecticidal effect rating (mortality of adults) [1] | mortality at 500 ppm [2] | mortality at 100 ppm [1] |
| --- | --- | --- | --- |
| O=C1Nc2ccc(-c3ccccc3)cc2CN1N=Cc1cccnc1 [compound 86] | D or higher |  |  |
| O=C1Nc2ccc(OC(F)(F)F)cc2CN1/N=C/c1cccnc1 [Compound No. 30, 3-(3-pyridylmethylideneamino)-3,4-dihydro-6-trifluoromethoxy-2(1H)-quinazolinone] |  | 100% | 100% |
| O=C1Nc2ccc(OC(F)F)cc2CN1N=Cc1cccnc1 [compound 38] | D or higher |  |  |
| CCOC(=O)c1ccc2c(c1)CN(N=Cc1cccnc1)C(=O)N2 [compound 78] | D or higher |  |  |
| O=C1Nc2ccc(C(F)(F)F)cc2CN1N=Cc1cccnc1 [compound 14] | D or higher |  |  |
| O=C1Nc2ccc(-c3ccc(Cl)cc3)cc2CN1N=Cc1cccnc1 [compound 90] | D or higher |  |  |
| O=C1Nc2ccc(OC(F)(F)F)cc2CN1NCc1cccnc1 [Compound No. 208, 3-(3-pyridylmethylamino)-3,4-dihydro-6-trifluoromethoxy-2(1H)-quinazolinone] |  | 100% | 100% |
| O=C1Nc2ccc(I)cc2CN1N=Cc1cccnc1 [compound 10] | D or higher |  |  |
